Assay results reported in patent US8492582B2, “N-acyl anthranilic acid derivative or salt thereof” (Toyama Chemical Co., Ltd., priority 2009, dated 2013).
Structures can show the parent of a compound that is named as a salt. Where two headings read alike, the source gives them in different places.

Assays:
[1] = tested on: type I collagen α1 chain mRNA in WI-38 cells; test: Type I collagen α1 chain mRNA expression inhibition test; type: cell-based; conditions: Homo sapiens, read-out: Inhibition rate (%) at 10 μmol/L
Method: Human embryonic lung fibroblast cell line WI-38 cells were suspended in a Dulbecco's modified Eagle's medium containing 10% fetal calf serum, and 7.5×10^4 cells were inoculated on a 12-well plate and cultured for 3 days, or 1.5×10^5 cells were inoculated and cultured for 2 days. After the growth of the cells to a subconfluent state, the culture medium was changed to a Dulbecco's modified Eagle's medium containing 0.4% fetal calf serum and 50 μg/mL ascorbic acid, and the cells were further cultured for 24 hours. Then, a test compound was added thereto, and, one hour later, TGF-β1 was added at a final concentration of 1 ng/mL. Twenty-four hours after the addition, the total RNA was extracted from the cells using an RNA extraction kit (SV Total RNA Isolation System, Promega), and cDNA was synthesized using a reverse transcriptase (ReverTra Ace, TOYOBO). The expression level of the type I collagen al chain mRNA was analyzed with a real-time PCR instrument (ABI PRISM 7700 Sequence Detection System, Applied Biosystems) by a real-time PCR method using a premix reagent of real-time PCR (SYBR Premix Ex Taq or SYBR Premix Ex Taq II (Perfect Real Time), TaKaRa). A PCR reaction was conducted with diluted cDNA as a template, using primers specific for a type I collagen α1 chain gene or a GAPDH gene as an internal standard, and the reaction product was measured. The PCR reaction was conducted by incubation at 95° C. for 10 seconds and 45 cycles of denaturation at 95° C. for 5 seconds and annealing/extension at 60° C. for 30 seconds. The expression level of the type I collagen α1 chain mRNA was corrected with GAPDH and was expressed as a relative value when the expression level obtained in the absence of the test compound was defined as 100%.

[2] = tested on: bleomycin-induced lung fibrosis (lung collagen amount); test: Mouse bleomycin-induced lung fibrosis; type: in vivo, mice C57BL/6N; conditions: po, 672 h, read-out: lung collagen amount low compared with that of the control group
Method: The test was conducted using 8- to 10.5-week-old male mice C57BL/6N (Charles River Laboratories Japan, Inc.). Bleomycin (Nippon Kayaku Co., Ltd.) was dissolved in physiological saline in a concentration of 1.0 or 1.5 mg/mL, and 2 μL/g thereof was intranasally administered to each mouse to evoke lung fibrosis. A test compound was dissolved or suspended in a 10% aqueous solution of polyoxyethylene castor oil (trade name: Cremophor EL) or in water and orally administered in an amount of 10 mg/kg twice a day from the 14th to the 28th day from the evocation. In a control group, a 10% aqueous solution of polyoxyethylene castor oil or water was administered in the same manner. The lung was extracted from each mouse on the 28th day from the evocation, and collagen was quantitatively measured. The extracted lung was homogenized in a 0.5 mol/L aqueous solution of acetic acid containing a protease inhibitor cocktail (Complete, EDTA-free, Roche Diagnostics) in an amount of one tablet/50 mL, and water-soluble collagen was extracted in the presence of 10 mg/mL pepsin (Sigma) overnight. The amount of collagen was measured using a kit (Sircol Soluble Collagen assay kit, Biocolor).
The inhibition rate was determined by the following expression: Inhibition rate (%)=[1−(lung collagen amount in test compound administration group)/(lung collagen amount in control group)]×100

SD-line male rats = test: Repeated administration toxicity test in rat (oral administration, two weeks); type: in vivo; conditions: 1000 mg/kg, 5 rats per group, 80a and 1b as sodium salts
Method: As test compounds, the compounds of Examples 80a, 122a, 139a, 1b, 16b, and 19b were used. Note that the compounds of Examples 80a and 1b were used in the forms of sodium salts.
Each test compound was suspended in a 0.5% methylcellulose solution or distilled water to prepare a 100 mg/mL suspension. The suspension of the test compound was orally administered (10 mL/kg, test compound: 1000 mg/kg) to SD-line male rats (6-week-old, 5 rats for each group).

CYP2C9 = target: T1, CYP2C9 (Homo sapiens, UniProt P11712); test: Hepatic drug-metabolizing enzyme inhibitory activity in humans (CYP2C9); type: in vitro ADME; conditions: pooled human liver microsome, tolbutamide 200 μmol/L, 37° C., 30 minutes; 80a as free base; read-out: IC50 (CYP2C9, tolbutamide metabolite)
T1 construct: Pooled human liver microsome was used, and tolbutamide was used as a substrate; from tissue; host or cells: pooled human liver microsomes
T1 sequence (P11712 whole entry): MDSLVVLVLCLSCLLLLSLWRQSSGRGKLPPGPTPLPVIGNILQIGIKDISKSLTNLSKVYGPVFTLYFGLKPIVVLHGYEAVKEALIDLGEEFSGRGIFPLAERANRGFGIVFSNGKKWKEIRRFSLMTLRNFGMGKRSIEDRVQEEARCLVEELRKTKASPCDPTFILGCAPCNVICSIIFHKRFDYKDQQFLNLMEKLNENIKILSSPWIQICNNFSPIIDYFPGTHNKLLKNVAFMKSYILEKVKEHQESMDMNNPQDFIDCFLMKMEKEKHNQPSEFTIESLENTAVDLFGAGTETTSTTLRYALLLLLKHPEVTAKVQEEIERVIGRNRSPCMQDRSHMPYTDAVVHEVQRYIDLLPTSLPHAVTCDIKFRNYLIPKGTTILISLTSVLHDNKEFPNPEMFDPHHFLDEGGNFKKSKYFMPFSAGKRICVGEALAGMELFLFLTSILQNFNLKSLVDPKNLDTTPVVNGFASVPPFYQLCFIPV
Method: As test compounds, the compounds of Examples 80a, 83a, 108a, 117a, 123a, 128a, 139a, 142a, and 143a were used. Note that the compound of Example 80a was used in the form of free base.
Pooled human liver microsome was used, and tolbutamide was used as a substrate. The reaction was performed in a phosphate buffer (100 mmol/L, pH 7.4), and the final concentrations in the reaction system were adjusted to 0.5 mg/mL of human liver microsome protein, 200 μmol/L of the substrate, 1.55 mmol/L of oxidized nicotinamide adenine dinucleotide phosphate (NADP+), 3.3 mmol/L of glucose-6-phosphate, 3.3 mmol/L of magnesium chloride, and 0.4 Units/mL of glucose-6-phosphate dehydrogenase (G6PDH). The final concentration of each compound in the reaction solution was adjusted to 0.08 to 50 μg/mL. These reaction solutions were each subjected to reaction at 37° C. for 30 minutes. The reaction was terminated with an equal amount of acetonitrile. After centrifugation, the concentration of a tolbutamide metabolite in the supernatant was quantitatively measured by LC-MS/MS. The inhibitory activity was determined as IC50. As a positive control, sulfaphenazole was used.

[3] = side effect, clinical, Non Patent Document 3; cited from earlier work
[4] = 10 μmol/L test compound, WI-38 cells, TGF-β1 1 ng/mL, 24 hours, Table 4b
[5] = orally 10 mg/kg twice a day, 14th to 28th day, lung on 28th day, 23a, 1b, 7c as sodium salts, 122a, 143a as hydrochloric acid salts
[6] = 10 μmol/L test compound, WI-38 cells, TGF-β1 1 ng/mL, 24 hours, Table 4a

For O=C(Nc1cc(-c2ccccc2)ccc1C(=O)O)c1cncc(-c2ccccc2)c1 [1b, 4-phenyl-2-(5-phenylpyridine-3-carboxamido)benzoic acid], the inhibition at 10 µM [1, 4] was 72%, the inhibition in vivo at 10 mg/kg [2, 5] was no less than 30% and the “survival on the 14th day from the administration” value (“survival on the 14th day” for short) (SD-line male rats) was “all rats survived”.
In the case of CCNc1ccccc1-c1ccc(C(=O)[O-])c(NC(=O)c2cncc(-c3ccccc3)c2)c1.[Na+] [16b, sodium 4-(2-(ethylamino)phenyl)-2-(5-phenylpyridine-3-carboxamido)benzoate], the inhibition at 10 µM [1, 4] is reported as 84%, the inhibition in vivo at 10 mg/kg [2, 5] is reported as no less than 30% and the “survival on the 14th day” value (SD-line male rats) is reported as “all rats survived”.
In the case of O=C(Nc1cc(-c2ccco2)ccc1C(=O)[O-])c1cncc(-c2ccccc2)c1.[Na+] [19b, sodium 4-(furan-2-yl)-2-(5-phenylpyridine-3-carboxamido)benzoate], the inhibition at 10 µM [1, 4] is reported as 90%, the inhibition in vivo at 10 mg/kg [2, 5] is reported as no less than 30% and the “survival on the 14th day” value (SD-line male rats) is reported as “all rats survived”.
With O=C(Nc1cc(-c2ccoc2)ccc1C(=O)O)c1cncc(-c2ccccc2)c1 [57b, Sodium 4-(furan-3-yl)-2-(5-phenylpyridine-3-carboxamido)benzoate] the inhibition at 10 µM ([1]; WI-38, 24 h) was 84% and the inhibition in vivo at 10 mg/kg [2] was no less than 30%.
In the case of O=C(Nc1cc(-c2ccccc2)ccc1C(=O)O)c1cc(-c2cccnc2)ccc1O [Example 23a, 2-(2-hydroxy-5-(pyridin-3-yl)benzamido)-4-phenylbenzoic acid], the inhibition at 10 µM [1, 6] is reported as 91% and the inhibition in vivo at 10 mg/kg [2, 5] is reported as no less than 30%.
With O=C(Nc1cc(-c2ccccc2)ccc1C(=O)O)c1cc(N2CCCCC2)ccc1O [Example 80a, 2-(2-hydroxy-5-(piperidin-1-yl)benzamido)-4-phenylbenzoic acid hydrochloride] the inhibition at 10 µM ([1]; WI-38, 24 h) was 95%, the inhibition in vivo at 10 mg/kg [2] was no less than 30% and the “survival on the 14th day” value (SD-line male rats) was “all rats survived”. The IC50 (CYP2C9) was greater than 120 µM.
Compound O=C(Nc1cc(-c2ccccc2)ccc1C(=O)O)c1cc(N2CCOCC2)ccc1O [Example 83a, 2-(2-Hydroxy-5-(morpholin-4-yl)benzamido)-4-phenylbenzoic acid hydrochloride] has an inhibition at 10 µM [1, 6] of 88%, an inhibition in vivo at 10 mg/kg [2, 5] of no less than 30% and an IC50 (CYP2C9) greater than 110 µM.
Compound CN1CCC(Oc2ccc(O)c(C(=O)Nc3cc(-c4ccccc4)ccc3C(=O)O)c2)CC1 [Example 108a, 2-(2-hydroxy-5-((1-methylpiperidin-4-yl)oxy)benzamido)-4-phenylbenzoic acid hydrochloride] has an inhibition at 10 µM [1, 6] of 94%, an inhibition in vivo at 10 mg/kg [2] of no less than 30% and an IC50 (CYP2C9) greater than 112 µM.
CN1CCN(CCc2ccc(O)c(C(=O)Nc3cc(-c4ccccc4)ccc3C(=O)O)c2)CC1 [Example 117a, 2-(2-hydroxy-5-(2-(4-methylpiperazin-1-yl)ethyl)benzamido)-4-phenylbenzoic acid dimethanesulfonate] gave an inhibition at 10 µM [1, 6] of 90% and an IC50 (CYP2C9) greater than 109 µM.
In the case of CN1CCN(Cc2ccc(O)c(C(=O)Nc3cc(-c4ccccc4)ccc3C(=O)O)c2)CC1 [Example 122a, 2-(2-hydroxy-5-((4-methylpiperazin-1-yl)methyl)benzamido)-4-phenylbenzoic acid dimethanesulfonate], the inhibition at 10 µM [1, 6] is reported as 88%, the inhibition in vivo at 10 mg/kg [2, 5] is reported as no less than 30% and the “survival on the 14th day” value (SD-line male rats) is reported as “all rats survived”.
CCN1CCN(Cc2ccc(O)c(C(=O)Nc3cc(-c4ccccc4)ccc3C(=O)O)c2)CC1 [Example 123a, 2-(5-((4-Ethylpiperazin-1-yl)methyl)-2-hydroxybenzamido)-4-phenylbenzoic acid dimethanesulfonate] gave an IC50 (CYP2C9) greater than 76.7 µM.
CN(C)C1CCN(Cc2ccc(O)c(C(=O)Nc3cc(-c4ccccc4)ccc3C(=O)O)c2)CC1 [Example 128a, 2-(5-((4-(Dimethylamino)piperidin-1-yl)methyl)-2-hydroxybenzamido)-4-phenylbenzoic acid dimethanesulfonate] showed an IC50 (CYP2C9) greater than 106 µM.
In the case of O=C(Nc1cc(-c2ccccc2)ccc1C(=O)O)c1cc(OCCN2CCOCC2)ccc1O [Example 139a, 2-(2-hydroxy-5-(2-(morpholin-4-yl)ethoxy)benzamido)-4-phenylbenzoic acid hydrochloride], the inhibition at 10 µM ([1]; WI-38, 24 h) is reported as 85%, the “survival on the 14th day” value (SD-line male rats) is reported as “all rats survived” and the IC50 (CYP2C9) is reported as greater than 108 µM.
CN1CCN(CCOc2ccc(O)c(C(=O)Nc3cc(-c4ccccc4)ccc3C(=O)O)c2)CC1 [Example 142a, 2-(2-hydroxy-5-(2-(4-methylpiperazin-1-yl)ethoxy)benzamido)-4-phenylbenzoic acid dimethanesulfonate] showed an inhibition at 10 µM [1, 6] of 90% and an IC50 (CYP2C9) greater than 105 µM.
In the case of CCN1CCN(CCOc2ccc(O)c(C(=O)Nc3cc(-c4ccccc4)ccc3C(=O)O)c2)CC1 [Example 143a, 2-(5-(2-(4-ethylpiperazin-1-yl)ethoxy)-2-hydroxybenzamido)-4-phenylbenzoic acid dimethanesulfonate], the inhibition at 10 µM [1, 6] is reported as 89%, the inhibition in vivo at 10 mg/kg [2, 5] is reported as no less than 30% and the IC50 (CYP2C9) is reported as greater than 102 µM.
Compound Cc1ccccc1-c1ccc(C(=O)O)c(NC(=O)c2cc(N3CCCCC3)ccc2O)c1 [Example 148a, 2-(2-hydroxy-5-(piperidin-1-yl)benzamido)-4-(2-methylphenyl)benzoic acid] has an inhibition at 10 µM [1, 6] of 93%.
Work on Cc1cccc(-c2ccc(C(=O)O)c(NC(=O)c3cc(N4CCCCC4)ccc3O)c2)c1 [Example 149a, 2-(2-Hydroxy-5-(piperidin-1-yl)benzamido)-4-(3-methylphenyl)benzoic acid] yielded an inhibition at 10 µM [1, 6] of 97%.
With Cc1ccc(-c2ccc(C(=O)O)c(NC(=O)c3cc(N4CCCCC4)ccc3O)c2)cc1 [Example 150a, 2-(2-Hydroxy-5-(piperidin-1-yl)benzamido)-4-(4-methylphenyl)benzoic acid] the inhibition at 10 µM [1, 6] was 93%.
For Cc1ccc(=O)n(-c2ccccc2)c1 [pirfenidone, Pirfenidone], the photosensitivity in subjects [3] is listed as 87.9%.
